In patent US9371320B2, “Heterocyclic compound” (TAKEDA PHARMACEUTICAL COMPANY LIMITED, priority 2012, dated 2016):

Columns and labels:
JAK1 = target: T1, JAK1 (Homo sapiens, UniProt P23458); assay: JAK1 enzyme inhibition test (LANCE method); format: biochemical; details: for inhibition at 1 µM: test compound 1 μM, read-out: Inhibitory rate (%) JAK1 1 μM; for inhibition at 10 µM / Inhibitory rate (%) JAK1 10 μM: test compound 10 μM (Ex. 182-220), beside Tyk2 1 μM; for inhibition at 10 µM: read-out: Inhibitory rate (%) JAK1 10 μM
T1 construct: purchased Invitrogen
T1 sequence (P23458 whole entry): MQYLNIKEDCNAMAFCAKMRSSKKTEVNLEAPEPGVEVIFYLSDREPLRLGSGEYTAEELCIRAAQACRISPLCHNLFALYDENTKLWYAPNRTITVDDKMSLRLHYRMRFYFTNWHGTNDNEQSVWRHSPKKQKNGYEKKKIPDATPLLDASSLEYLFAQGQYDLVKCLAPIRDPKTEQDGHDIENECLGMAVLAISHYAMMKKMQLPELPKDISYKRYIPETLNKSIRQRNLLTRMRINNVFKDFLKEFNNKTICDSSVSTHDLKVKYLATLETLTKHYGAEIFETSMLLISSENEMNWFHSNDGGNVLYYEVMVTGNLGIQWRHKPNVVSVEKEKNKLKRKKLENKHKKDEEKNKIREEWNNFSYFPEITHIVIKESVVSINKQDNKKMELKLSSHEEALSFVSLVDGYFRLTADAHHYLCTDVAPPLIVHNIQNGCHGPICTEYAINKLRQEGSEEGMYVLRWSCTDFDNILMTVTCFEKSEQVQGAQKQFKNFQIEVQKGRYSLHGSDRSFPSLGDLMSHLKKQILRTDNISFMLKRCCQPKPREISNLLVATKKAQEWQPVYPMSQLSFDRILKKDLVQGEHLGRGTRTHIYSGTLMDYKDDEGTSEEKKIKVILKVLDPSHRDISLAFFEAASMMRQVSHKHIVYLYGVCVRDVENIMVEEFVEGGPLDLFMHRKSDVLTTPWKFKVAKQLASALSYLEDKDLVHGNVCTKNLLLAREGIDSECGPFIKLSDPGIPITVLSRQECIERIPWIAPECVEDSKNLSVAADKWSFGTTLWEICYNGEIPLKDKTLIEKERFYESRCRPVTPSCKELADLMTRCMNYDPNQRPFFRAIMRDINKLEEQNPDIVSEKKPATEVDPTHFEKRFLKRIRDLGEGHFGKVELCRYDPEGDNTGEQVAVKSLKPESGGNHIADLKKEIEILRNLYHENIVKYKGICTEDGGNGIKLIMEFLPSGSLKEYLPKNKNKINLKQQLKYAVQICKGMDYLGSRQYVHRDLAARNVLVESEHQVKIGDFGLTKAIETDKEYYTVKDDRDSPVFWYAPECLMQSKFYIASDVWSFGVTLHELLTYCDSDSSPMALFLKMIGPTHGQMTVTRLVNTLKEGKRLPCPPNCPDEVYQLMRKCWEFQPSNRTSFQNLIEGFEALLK
Procedure, shortened: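 Reactions ran 1 h at room temperature in HEPES pH 7.5/MgCl2 buffer, with ATP solution at 150 μM and JAK1 and ULight peptide solutions at 187.5 ng/mL and 300 nM. Reactions were stopped with EDTA, and phosphorylation was read by Eu antibody time-resolved fluorescence at 665 nm. Inhibition was scaled to a no-enzyme control as 100%.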

Tyk2 = target: T2, Tyk2 (Homo sapiens, UniProt P29597); assay: Tyk2 enzyme inhibition test (LANCE method); format: biochemical; details: test compound 1 μM; for inhibition at 1 µM: read-out: Inhibitory rate (%) Tyk2 1 μM
T2 construct: purchased Invitrogen
T2 sequence (P29597 whole entry): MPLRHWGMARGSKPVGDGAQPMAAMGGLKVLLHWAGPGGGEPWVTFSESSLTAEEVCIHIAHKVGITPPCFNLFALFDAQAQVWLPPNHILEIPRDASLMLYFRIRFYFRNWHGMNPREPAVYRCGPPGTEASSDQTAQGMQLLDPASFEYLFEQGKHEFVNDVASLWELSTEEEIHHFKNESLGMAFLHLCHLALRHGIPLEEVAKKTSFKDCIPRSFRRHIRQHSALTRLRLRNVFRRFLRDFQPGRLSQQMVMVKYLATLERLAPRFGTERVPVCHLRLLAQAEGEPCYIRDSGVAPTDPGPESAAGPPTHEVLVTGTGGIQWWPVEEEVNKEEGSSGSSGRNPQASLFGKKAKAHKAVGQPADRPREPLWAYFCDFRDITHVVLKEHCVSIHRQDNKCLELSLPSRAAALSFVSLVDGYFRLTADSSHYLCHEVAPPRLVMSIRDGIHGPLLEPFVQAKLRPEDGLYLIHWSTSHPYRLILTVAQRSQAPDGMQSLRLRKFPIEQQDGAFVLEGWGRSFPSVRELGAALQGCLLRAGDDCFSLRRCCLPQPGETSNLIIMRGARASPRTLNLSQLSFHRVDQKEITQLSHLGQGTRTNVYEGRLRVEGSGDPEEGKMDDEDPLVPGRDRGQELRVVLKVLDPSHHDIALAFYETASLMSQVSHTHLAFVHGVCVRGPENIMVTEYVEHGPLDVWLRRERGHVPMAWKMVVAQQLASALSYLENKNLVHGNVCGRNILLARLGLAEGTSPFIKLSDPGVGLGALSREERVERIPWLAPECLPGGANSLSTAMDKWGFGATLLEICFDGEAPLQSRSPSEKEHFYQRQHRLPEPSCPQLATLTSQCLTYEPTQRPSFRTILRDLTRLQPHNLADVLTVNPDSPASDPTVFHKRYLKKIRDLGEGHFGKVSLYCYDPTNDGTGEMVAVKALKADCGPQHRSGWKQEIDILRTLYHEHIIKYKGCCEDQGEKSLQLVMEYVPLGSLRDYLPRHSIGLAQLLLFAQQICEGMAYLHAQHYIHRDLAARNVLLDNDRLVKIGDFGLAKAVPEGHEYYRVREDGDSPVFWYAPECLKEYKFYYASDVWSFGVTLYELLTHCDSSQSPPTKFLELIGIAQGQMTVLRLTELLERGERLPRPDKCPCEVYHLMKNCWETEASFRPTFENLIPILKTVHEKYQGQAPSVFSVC
Procedure, shortened: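 LANCE TR-FRET read-out (ex 340/em 665 nm, 100 μs delay) of ULight-JAK1 phosphorylation, with no-enzyme wells as 100% inhibition. Reaction run 1 h at room temperature in pH 7.5 HEPES buffer; enzyme 375 ng/mL, substrate 300 nM and ATP 30 μM are solution concentrations before mixing.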

| Compound | inhibition at 1 µM (JAK1) | inhibition at 1 µM (Tyk2) | inhibition at 10 µM (JAK1) | Inhibitory rate (%) JAK1 10 μM (JAK1) | Inhibitory rate (%) Tyk2 1 μM (Tyk2) |
| --- | --- | --- | --- | --- | --- |
| NS(=O)(=O)c1ccc(-c2nn(C3CCC(O)(c4ccccc4)CC3)c3cc[nH]c(=O)c23)cc1 (centres unmarked) [Example 174, 4-(1-(4-hydroxy-4-phenylcyclohexyl)-4-oxo-4,5-dihydro-1H-pyrazolo[4,3-c]pyridin-3-yl)benzenesulfonamide] | 99% | 98% |  |  |  |
| NC(=O)Cn1cc(-c2nn(-c3c(F)cccc3F)c3c(Br)c[nH]c(=O)c23)cn1 [Example 175, 2-(4-(7-bromo-1-(2,6-difluorophenyl)-4-oxo-4,5-dihydro-1H-pyrazolo[4,3-c]pyridin-3-yl)-1H-pyrazol-1-yl)acetamide] | 86% | 100% |  |  |  |
| O=c1[nH]cc(Br)c2c1c(-c1cn[nH]c1)nn2-c1c(F)cccc1F [Example 176, 7-bromo-1-(2,6-difluorophenyl)-3-(1H-pyrazol-4-yl)-1,5-dihydro-4H-pyrazolo[4,3-c]pyridin-4-one] | 95% | 100% |  |  |  |
| O=c1[nH]cc(Cl)c2c1c(-c1cn[nH]c1)nn2-c1c(F)cccc1F [Example 177, 7-chloro-1-(2,6-difluorophenyl)-3-(1H-pyrazol-4-yl)-1,5-dihydro-4H-pyrazolo[4,3-c]pyridin-4-one] | 91% | 100% |  |  |  |
| N#Cc1c[nH]c(=O)c2c(Nc3cccc(C(N)=O)c3)cn(C3CCCC3)c12 [Example 178, 3-((7-cyano-1-cyclopentyl-4-oxo-4,5-dihydro-1H-pyrrolo[3,2-c]pyridin-3-yl)amino)benzamide] | 93% | 99% |  |  |  |
| O=c1[nH]ccc2c1c(-c1ccc(N3CCOCC3)cc1)nn2-c1c(F)cccc1F [Example 179, 1-(2,6-difluorophenyl)-3-(4-(morpholin-4-yl)phenyl)-1,5-dihydro-4H-pyrazolo[4,3-c]pyridin-4-one] | 94% | 100% |  |  |  |
| CNC(=O)c1ccc(-c2nn(-c3c(F)cccc3F)c3cc[nH]c(=O)c23)cc1 [Example 180, 4-(1-(2,6-difluorophenyl)-4-oxo-4,5-dihydro-1H-pyrazolo[4,3-c]pyridin-3-yl)-N-methylbenzamide] | 92% | 101% |  |  |  |
| NC(=O)Cc1ccc(-c2nn(C3CCCC3)c3cc[nH]c(=O)c23)cc1 [Example 182, 2-(4-(1-cyclopentyl-4-oxo-4,5-dihydro-1H-pyrazolo[4,3-c]pyridin-3-yl)phenyl)acetamide] |  | 98% | 98% |  |  |
| NC(=O)c1cc(-c2nn([C@H]3CC[C@H](O)CC3)c3cc[nH]c(=O)c23)cs1 [Example 183, 4-(1-(trans-4-hydroxycyclohexyl)-4-oxo-4,5-dihydro-1H-pyrazolo[4,3-c]pyridin-3-yl)thiophene-2-carboxamide] |  | 100% | 100% |  |  |
| NC(=O)c1cc(-c2nn([C@H]3CC[C@@H](O)CC3)c3cc[nH]c(=O)c23)cs1 [Example 184, 4-(1-(cis-4-hydroxycyclohexyl)-4-oxo-4,5-dihydro-1H-pyrazolo[4,3-c]pyridin-3-yl)thiophene-2-carboxamide] |  | 99% | 100% |  |  |
| O=c1[nH]cc(Cl)c2c1c(-c1ccc(CN3CCOCC3)cc1)nn2-c1c(F)cccc1F [Example 185, 7-chloro-1-(2,6-difluorophenyl)-3-(4-(morpholin-4-ylmethyl)phenyl)-1,5-dihydro-4H-pyrazolo[4,3-c]pyridin-4-one] |  | 99% | 72% |  |  |
| O=C1OCCN1Cc1ccc(-c2nn(-c3c(F)cccc3F)c3c(Cl)c[nH]c(=O)c23)cc1 [Example 186, 7-chloro-1-(2,6-difluorophenyl)-3-(4-((2-oxo-1,3-oxazolidin-3-yl)methyl)phenyl)-1,5-dihydro-4H-pyrazolo[4,3-c]pyridin-4-one] |  | 99% | 82% |  |  |
| CC(C)(C#N)c1ccc(-c2nn(-c3c(F)cccc3F)c3c(Cl)c[nH]c(=O)c23)cc1 [Example 187, 2-(4-(7-chloro-1-(2,6-difluorophenyl)-4-oxo-4,5-dihydro-1H-pyrazolo[4,3-c]pyridin-3-yl)phenyl)-2-methylpropanenitrile] |  | 98% | 83% |  |  |
| CC(C)(C(N)=O)c1ccc(-c2nn(-c3c(F)cccc3F)c3c(Cl)c[nH]c(=O)c23)cc1 [Example 188, 2-(4-(7-chloro-1-(2,6-difluorophenyl)-4-oxo-4,5-dihydro-1H-pyrazolo[4,3-c]pyridin-3-yl)phenyl)-2-methylpropanamide] |  | 100% | 84% |  |  |
| Cn1cc(-c2nn(-c3c(F)cccc3F)c3c(Cl)c[nH]c(=O)c23)cn1 [Example 189, 7-chloro-1-(2,6-difluorophenyl)-3-(1-methyl-1H-pyrazoI-4-yl)-1,5-dihydro-4H-pyrazolo[4,3-c]pyridin-4-one] |  | 100% | 92% |  |  |
| NC(=O)Cn1cc(-c2nn(-c3c(F)cccc3F)c3c(Cl)c[nH]c(=O)c23)cn1 [Example 190, 2-(4-(7-chloro-1-(2,6-difluorophenyl)-4-oxo-4,5-dihydro-1H-pyrazolo[4,3-c]pyridin-3-yl)-1H-pyrazol-1-yl)acetamide] |  | 99% | 81% |  |  |
| N#CCNC(=O)c1cc(-c2nn(-c3c(F)cccc3F)c3c(Cl)c[nH]c(=O)c23)cs1 [Example 191, 4-(7-chloro-1-(2,6-difluorophenyl)-4-oxo-4,5-dihydro-1H-pyrazolo[4,3-c]pyridin-3-yl)-N-(cyanomethyl)thiophene-2-carboxamide] |  | 100% | 98% |  |  |
| O=C(c1cc(-c2nn(-c3c(F)cccc3F)c3c(Cl)c[nH]c(=O)c23)cs1)N1CCOCC1 [Example 192, 7-chloro-1-(2,6-difluorophenyl)-3-(5-(morpholin-4-ylcarbonyl)-3-thienyl)-1,5-dihydro-4H-pyrazolo[4,3-c]pyridin-4-one] |  | 99% | 94% |  |  |
| O=C(NN1CCOCC1)c1cc(-c2nn(-c3c(F)cccc3F)c3c(Cl)c[nH]c(=O)c23)cs1 [Example 193, 4-(7-chloro-1-(2,6-difluorophenyl)-4-oxo-4,5-dihydro-1H-pyrazolo[4,3-c]pyridin-3-yl)-N-(morpholin-4-yl)thiophene-2-carboxamide] |  | 100% | 99% |  |  |
| CNC(=O)c1ccc(-c2nn(-c3c(F)cccc3F)c3c(Cl)c[nH]c(=O)c23)cc1 [Example 194, 4-(7-chloro-1-(2,6-difluorophenyl)-4-oxo-4,5-dihydro-1H-pyrazolo[4,3-c]pyridin-3-yl)-N-methylbenzamide] |  | 100% | 67% |  |  |
| O=C1CCCN1c1ccc(-c2nn(-c3c(F)cccc3F)c3c(Cl)c[nH]c(=O)c23)cc1 [Example 195, 7-chloro-1-(2,6-difluorophenyl)-3-(4-(2-oxopyrrolidin-1-yl)phenyl)-1,5-dihydro-4H-pyrazolo[4,3-c]pyridin-4-one] |  | 100% | 79% |  |  |
| CC1(O)CCC(n2nc(-c3ccc(S(N)(=O)=O)cc3)c3c(=O)[nH]ccc32)CC1 (centres unmarked) [Example 196, 4-(1-(4-hydroxy-4-methylcyclohexyl)-4-oxo-4,5-dihydro-1H-pyrazolo[4,3-c]pyridin-3-yl)benzenesulfonamide] |  | 100% | 100% |  |  |
| CC1(O)CCC(n2nc(-c3ccc(S(N)(=O)=O)cc3)c3c(=O)[nH]ccc32)CC1 (centres unmarked) [Example 197, 4-(1-(4-hydroxy-4-methylcyclohexyl)-4-oxo-4,5-dihydro-1H-pyrazolo[4,3-c]pyridin-3-yl)benzenesulfonamide] |  |  |  | 99% | 98% |
| CC1(O)CCC(n2nc(-c3csc(C(N)=O)c3)c3c(=O)[nH]ccc32)CC1 (centres unmarked) [Example 198, 4-(1-(4-hydroxy-4-methylcyclohexyl)-4-oxo-4,5-dihydro-1H-pyrazolo[4,3-c]pyridin-3-yl)thiophene-2-carboxamide] |  | 100% | 100% |  |  |
| CC1(O)CCC(n2nc(-c3csc(C(N)=O)c3)c3c(=O)[nH]ccc32)CC1 (centres unmarked) [Example 199, 4-(1-(4-hydroxy-4-methylcyclohexyl)-4-oxo-4,5-dihydro-1H-pyrazolo[4,3-c]pyridin-3-yl)thiophene-2-carboxamide] |  |  |  | 99% | 100% |
| N#Cc1cc(-c2nn(-c3c(F)cccc3F)c3c(Cl)c[nH]c(=O)c23)ccc1N1CCOCC1 [Example 200, 5-(7-chloro-1-(2,6-difluorophenyl)-4-oxo-4,5-dihydro-1H-pyrazolo[4,3-c]pyridin-3-yl)-2-(morpholin-4-yl)benzonitrile] |  | 98% | 22% |  |  |
| N#Cc1ccc(-c2nn(C3CCCC3)c3cc[nH]c(=O)c23)cc1 [Example 201, 4-(1-cyclopentyl-4-oxo-4,5-dihydro-1H-pyrazolo[4,3-c]pyridin-3-yl)benzonitrile] |  | 97% | 96% |  |  |
| N#Cc1cccc(-c2nn(C3CCCC3)c3cc[nH]c(=O)c23)c1 [Example 202, 3-(1-cyclopentyl-4-oxo-4,5-dihydro-1H-pyrazolo[4,3-c]pyridin-3-yl)benzonitrile] |  | 87% | 80% |  |  |
